Data reported in patent US6699849B1, “Cyclodextrin complexes of benzodiazepines” (Cyclops, ehf., priority 1998, dated 2004).

Tests used:
[1] = Effect of pH and cyclodextrins on the fraction of the open form (diazepine ring-opening) of benzodiazepines; type: physicochemical
Description: The cyclodextrin concentration was 10% (w/v) and the benzodiazepine concentration was 1×10^−4 M. The concentration of the closed form was determined immediately after dissolving the benzodiazepine in the aqueous cyclodextrin solution and again 24 hours later (i.e. after equilibration at 23° C.). Preliminary experiments had shown that equilibrium between the closed and the open form was attained within 3 hours at 23° C.

[2] = First-order rate constant of diazepine ring-closure (regeneration of the benzodiazepine); type: physicochemical; conditions: pH 7.5, 37° C.
Description: The effect of cyclodextrins and organic solvents on the rate of diazepine ring-closure of several selected benzodiazepines was investigated. Stock solutions containing 1.0×10^−3 M of the benzodiazepine in 0.10 M aqueous hydrochloric acid solution (pH approx. 1.1) were prepared and stored at 37.0° C. The benzodiazepines were in the ring-open form in these stock solutions. Aqueous 0.50 M tris buffer (pH 7.50) solution was prepared. The observed first-order rate constant for the closing (i.e. formation) of the benzodiazepine ring was determined in the following reaction media: a) pure aqueous tris buffer solution; b) aqueous tris buffer solution containing 10% (w/v) cyclodextrin; c) tris buffer solution containing 10% (w/v) cyclodextrin and 10% (v/v) ethanol (EtOH); d) tris buffer solution containing 10% (w/v) cyclodextrin and 50% (v/v) EtOH; e) tris buffer solution containing 10% (w/v) cyclodextrin and 10% (v/v) dimethylsulfoxide (DMSO); and f) tris buffer solution containing 10% (w/v) cyclodextrin and 50% (w/v) DMSO. The stock solution (30 μl) was added to 1.50 ml of the reaction media which had previously been equilibrated to 37.0° C. and the first-order rate constant for the appearance of the closed form determined from the appearance of the closed form as observed on HPLC. Tables 5, 6 and 7 show the effects of cyclodextrins, EtOH and DMSO on the observed first-order rate constant for the regeneration of alprazolam, triazolam and midazolam, respectively. In pure aqueous buffer solutions, addition of EtOH and DMSO decreases somewhat the rate of ring closure, at least in the case of alprazolam and midazolam. Addition of cyclodextrin or the organic solvents have insignificant effect on the pH under these conditions. The dielectric constant of the reaction medium will, however, decrease upon addition of the organic solvents. It is possible that this decrease in the dielectric constant will reduce the ability of the reaction media to stabilize the transition state which could explain the decrease in the observed rate constant. […] The cyclodextrins formed stable complexes with the ring-open form of the drug and, thus, the rate decreased upon addition of cyclodextrin. […] EtOH and DMSO will compete with the diazepine ring-open form for a space in the cyclodextrin cavity resulting in decreased complexation.

[3] = Flux of alprazolam through hairless mouse skin in Franz diffusion cells
Description: Female hairless mice were sacrificed by cervical dislocation and their full-thickness skins removed. […] The skin was placed in Franz diffusion cells. The receptor phase consisted of phosphate buffer saline pH 7.4. The skin diffusion cells were stirred with a magnetic bar and kept at 37° C. by circulating water through an external jacket. […] The samples were kept frozen until analyzed by HPLC. The flux was calculated from the linear part of each permeability profile and the permeability coefficient obtained by dividing the flux with the concentration of dissolved drug in the donor phase.

[4] = Transdermal delivery of enalaprilat from 10% (w/v) HPβCD solutions, effect of heating with polymers; type: in vitro ADME; conditions: for Flux Ratio (heated/un-heated): donor phase HPβCD, pH 5.0
Text: It is possible to enhance the cyclodextrin (CD) complexation efficacy, or efficiency, of drugs (D), and other “guest” molecules, by either increasing the apparent stability constant (KC) of the drug-cyclodextrin complex (D-CD) or increasing the apparent intrinsic solubility (S0) of the drug. For example, KC can be increased by addition of water-soluble polymers to the aqueous complexation media and S0 can be increased by ionization of the drug molecule, as described previously. […] On the other hand, if the drug-cyclodextrin complexes are prepared under conditions which ensure enhanced complexation and if the complexation efficiency decreases upon administration, then enhanced drug availability will be observed. Thus, the present invention involves: i) enhancement of the complexation efficiency and ii) reduction of the complexation efficiency after administration. For example, it is possible to enhance the complexation efficiency of many ionizable drugs by preparing the complexes at a pH where the drug is ionized but obtain decreased efficiency upon administration due to pH changes and consequent decreased ionization. One example of such a drug is phenytoin (pKa 8.1). […] However, if the pH 8.0 solution was placed in an environment which would decrease the pH from 8 to 5 (e.g. topical application to the skin), then a supersaturated solution would be formed which would result in enhanced drug availability (e.g. it would result in enhanced transdermal drug delivery). Other means to enhance S0 include reversible derivation (e.g. prodrug formation) of the guest molecule and addition of certain low molecular weight acids. The value of KC can, for example, be increased by addition of certain low molecular weight acids, by addition of water-soluble polymers to the aqueous complexation media or by using mixed solvent systems such as aqueous 10% (v/v) acetic acid. […] The effect of the polymers on the transdermal delivery of enalaprilat can, at least partly, be explained by decreased complexation efficiency (i.e. decrease in KC) at the skin surface.

[5] = 10% (w/v) HPβCD, pH 2, approx. 23° C.
[6] = 10% (w/v) HPβCD, pH 3, approx. 23° C.
[7] = 10% (w/v) HPβCD, pH 4, approx. 23° C.
[8] = 10% (w/v) SBEβCD, pH 2, approx. 23° C.
[9] = 10% (w/v) SBEβCD, pH 3, approx. 23° C.
[10] = 10% (w/v) SBEβCD, pH 4, approx. 23° C.
[11] = 10% (w/v) αCD, pH 2, approx. 23° C.
[12] = 10% (w/v) αCD, pH 3, approx. 23° C.
[13] = 10% (w/v) αCD, pH 4, approx. 23° C.
[14] = 10% (w/v) γCD, pH 2, approx. 23° C.
[15] = 10% (w/v) γCD, pH 3, approx. 23° C.
[16] = 10% (w/v) γCD, pH 4, approx. 23° C.
[17] = no cyclodextrin, pH 2, approx. 23° C.
[18] = no cyclodextrin, pH 3, approx. 23° C.
[19] = no cyclodextrin, pH 4, approx. 23° C.

Compound	Fraction open [1, 5]	Fraction open [1, 6]	Fraction open [1, 7]	Fraction open [1, 8]	Fraction open [1, 9]	Fraction open [1, 10]	Fraction open [1, 11]	Fraction open [1, 12]	Fraction open [1, 13]	Fraction open [1, 14]	Fraction open [1, 15]	Fraction open [1, 16]	Fraction open [1, 17]	Fraction open [1, 18]	Fraction open [1, 19]	observed first-order rate constant, ring formation ([2]; 10% HPβCD, 10% DMSO) [min⁻¹]	observed first-order rate constant, ring formation ([2]; 10% HPβCD, 10% EtOH) [min⁻¹]	observed first-order rate constant, ring formation ([2]; 10% HPβCD, 50% DMSO) [min⁻¹]	observed first-order rate constant, ring formation ([2]; 10% HPβCD, 50% EtOH) [min⁻¹]	observed first-order rate constant, ring formation ([2]; 10% HPβCD, pure water) [min⁻¹]	further results
CN1C(=O)CN=C(c2ccccc2)c2cc(Cl)ccc21 [Diazepam]	0.65	0.29	0.15	0.63	0.56	0.22	0.67	0.51	0.13	0.41	0.17	0.13	0.30	0.23	0.15	–	–	–	–	–	–
Cc1nnc2n1-c1ccc(Cl)cc1C(c1ccccc1)=NC2 [alprazolam, 8-chloro-1-methyl-6-phenyl-4H-s-triazolo[4,3-a][1,4]benzodiazepine]	0.89	0.60	0.23	0.96	0.84	0.33	0.94	0.79	0.25	0.81	0.41	0.42	0.82	0.56	0.33	444	523	857	707	330	observed first-order rate constant, ring formation ([2]; 10% RMβCD, 10% DMSO): 397 min⁻¹; observed first-order rate constant, ring formation ([2]; 10% RMβCD, 10% EtOH): 490 min⁻¹; observed first-order rate constant, ring formation ([2]; 10% RMβCD, 50% DMSO): 792 min⁻¹; observed first-order rate constant, ring formation ([2]; 10% RMβCD, 50% EtOH): 670 min⁻¹; observed first-order rate constant, ring formation ([2]; 10% RMβCD, pure water): 297 min⁻¹; observed first-order rate constant, ring formation ([2]; 10% SBEβCD, 10% EtOH): 518 min⁻¹; observed first-order rate constant, ring formation ([2]; 10% SBEβCD, 50% DMSO): 936 min⁻¹; observed first-order rate constant, ring formation ([2]; 10% SBEβCD, 50% EtOH): 582 min⁻¹; observed first-order rate constant, ring formation ([2]; 10% SBEβCD, pure water): 311 min⁻¹; observed first-order rate constant, ring formation ([2]; No CD, 10% DMSO): 968 min⁻¹; observed first-order rate constant, ring formation ([2]; No CD, 10% EtOH): 1150 min⁻¹; observed first-order rate constant, ring formation ([2]; No CD, 50% DMSO): 1070 min⁻¹; observed first-order rate constant, ring formation ([2]; No CD, 50% EtOH): 724 min⁻¹; observed first-order rate constant, ring formation ([2]; No CD, pure water): 1420 min⁻¹; share of drug in the open form ([1]; aqueous HPβCD solution, pH 3): about 60%; alprazolam concentration in the donor phase (saturated) ([3]; aqueous 7% (w/v) SBEβCD, pH 3.3): 1.85 mg/mL; Flux ([3]; donor 7% (w/v) SBEβCD pH 3.3, without increasing the pH): 3.91 × 10^−4 mg/cm^2/h; Flux ([3]; donor 7% (w/v) SBEβCD, increasing the pH from 3.3 to 4.1): 4.56 × 10^−4 mg/cm^2/h; Flux Ratio ([3]; increasing the pH from 3.3 to 4.1): 1.2; Flux Ratio ([3]; without increasing the pH): 1.0
C[C@H](N[C@@H](CCc1ccccc1)C(=O)O)C(=O)N1CCC[C@H]1C(=O)O [enalaprilat]	–	–	–	–	–	–	–	–	–	–	–	–	–	–	–	–	–	–	–	–	Flux Ratio (heated/un-heated) ([4]; 0.10% HPMC): 2.6; Flux Ratio (heated/un-heated) ([4]; 0.25% PVP): 1.4; effect of polymers on transdermal delivery ([4]; polymers added to unheated vehicles): did not enhance; effect of polymers on transdermal delivery ([4]; vehicles heated after addition of the polymers): significant enhancement
Cc1nnc2n1-c1ccc(Cl)cc1C(c1ccccc1Cl)=NC2 [triazolam, 8-chloro-6-(o-chlorophenyl)-1-methyl-4H-s-triazolo[4,3-a][1,4]benzodiazepine]	0.51	0.09	0.00	0.71	0.25	0.00	0.75	0.23	0.00	0.33	0.01	0.00	0.53	0.08	0.00	0.0079	0.0092	0.0114	0.0102	0.0066	observed first-order rate constant, ring formation ([2]; 10% RMβCD, 10% DMSO): 0.0078 min⁻¹; observed first-order rate constant, ring formation ([2]; 10% RMβCD, 10% EtOH): 0.0092 min⁻¹; observed first-order rate constant, ring formation ([2]; 10% RMβCD, 50% DMSO): 0.0112 min⁻¹; observed first-order rate constant, ring formation ([2]; 10% RMβCD, 50% EtOH): 0.01 min⁻¹; observed first-order rate constant, ring formation ([2]; 10% RMβCD, pure water): 0.0064 min⁻¹; observed first-order rate constant, ring formation ([2]; 10% SBEβCD, 10% DMSO): 0.0073 min⁻¹; observed first-order rate constant, ring formation ([2]; 10% SBEβCD, 10% EtOH): 0.0082 min⁻¹; observed first-order rate constant, ring formation ([2]; 10% SBEβCD, 50% DMSO): 0.0113 min⁻¹; observed first-order rate constant, ring formation ([2]; 10% SBEβCD, 50% EtOH): 0.0097 min⁻¹; observed first-order rate constant, ring formation ([2]; 10% SBEβCD, pure water): 0.0058 min⁻¹; observed first-order rate constant, ring formation ([2]; No CD, 10% DMSO): 0.0128 min⁻¹; observed first-order rate constant, ring formation ([2]; No CD, 10% EtOH): 0.0131 min⁻¹; observed first-order rate constant, ring formation ([2]; No CD, 50% DMSO): 0.0137 min⁻¹; observed first-order rate constant, ring formation ([2]; No CD, 50% EtOH): 0.0184 min⁻¹; observed first-order rate constant, ring formation ([2]; No CD, pure water): 0.0132 min⁻¹
